{"source": "paper PMC6988089", "about": "(Journal of the American Chemical Society, 2019)", "format_in_all_cases": "biochemical", "key": {"[1]": {"test_system": "Suv39H2 mutant / hole-modified CBX1", "conditions": "full-length H3 and purified mononucleosomes; Western blot"}, "G9a Y1154G mutant": {"test_system": "G9a Y1154G mutant", "assay": "Substrate peptide benzylation by G9a-Y1154G"}, "G9a Y1154A mutant": {"test_system": "G9a Y1154A mutant", "assay": "Substrate peptide alkylation by G9a-Y1154A with SAM analogues", "conditions": "TAMRA-labeled H3K9 peptide; MALDI-MS"}, "Y372G mutant of Suv39H2": {"test_system": "Y372G mutant of Suv39H2", "assay": "Benzylation of substrate peptide and full-length H3 by Suv39H2-Y372G"}}, "data": [{"smiles": "Nc1ncnc2c1ncn2[C@@H]1O[C@H](C[S+](CC[C@H](N)C(=O)O)Cc2ccccc2)[C@@H](O)[C@H]1O", "note": "(some centres unmarked) [benzyl-SAM]", "values": [{"measurement": "H3 signal after enrichment with hole-modified CBX1", "setting": "[1]", "value": "signal for H3 only in the presence of benzyl-SAM"}, {"measurement": "substrate benzylation by G9a-Y1154G", "setting": "G9a Y1154G mutant; TAMRA-labeled H3K9 peptide, MALDI-MS", "value": "complete substrate benzylation"}, {"measurement": "dibenzylation of substrate by G9a mutant", "setting": "G9a Y1154G mutant; under our assay conditions, Figure S2", "value": "did not observe any dibenzylation"}, {"measurement": "substrate modification by G9a-Y1154A", "setting": "G9a Y1154A mutant", "value": "not efficient at incorporating benzyl modification"}, {"measurement": "utilization of benzyl-SAM by Suv39H2-Y372G", "setting": "Y372G mutant of Suv39H2", "value": "efficiently utilized benzyl-SAM"}]}]}
